Some test systems named below: A498 renal; CCRF-CEM leukemia; HCC-2998 colon; HCT-116 colon; HOP-62 NSCLC; MALME-3M melanoma; MDA-MB-231 breast; OVCAR-3 ovarian; OVCAR-5 ovarian; SNB-19 CNS.
Common to all, as to assay: inhibition of tumour cell growth, NCI panel, 48 h

Several values for one entry are separate records, joined by “and”; a condition that tells them apart may be missing. Identical values can stand only once.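 Where inhibition never reached the appropriate level, the endpoint shown equals the highest concentration tested. Otherwise, values were interpolated linearly from a five-concentration, 48-hour dose response in 96-well plates. GI50 = concentration required for 50% inhibition of growth. TGI marks complete inhibition of growth.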

In the case of `C=C1C(=O)O[C@H]2[C@H]1CC/C(COC(=O)NCc1ccc(Cn3c(=O)sn(CCCI)c3=O)cc1)=C\CC[C@@]1(C)O[C@@H]21`, the GI50 with A498 renal was 4.85 µM; with CCRF-CEM leukemia it was 0.314 µM; in the experiment on HCC-2998 colon, 1.96 µM; in the experiment on HCT-116 colon, 1.05 µM; in the experiment with HOP-62 NSCLC it was 13.5 µM; in the experiment on MALME-3M melanoma, 1.39 µM. Moreover, the GI50 with MDA-MB-231 breast is 1.75 µM; in the experiment with OVCAR-3 ovarian, 1.19 µM; in the experiment with OVCAR-5 ovarian, 1.85 µM; with SNB-19 CNS, 3.12 µM. Besides, the TGI in the experiment on A498 renal worked out at 16.8 µM; in the experiment on CCRF-CEM leukemia, 2.18 µM; in the experiment on HCC-2998 colon, 3.71 µM; in the experiment with HCT-116 colon, 2.57 µM; in the experiment with HOP-62 NSCLC, 27.4 µM; with MALME-3M melanoma it was 3.21 µM. Also, the TGI in the experiment with MDA-MB-231 breast turned out to be 3.56 µM; in the experiment on OVCAR-3 ovarian, 2.43 µM; with OVCAR-5 ovarian, 4.17 µM; in the experiment with SNB-19 CNS it was 13.8 µM.

Turning to `Nc1nc(N)c2nc(CNc3ccc(C(=O)NC(CCC(=O)O)C(=O)O)cc3)cnc2n1` (stereo not given), the GI50 was 0.062 µM and 0.0488 µM with A498 renal; less than 0.01 µM in the experiment with CCRF-CEM leukemia; 0.0329 µM and < 0.01 µM in the experiment with HCC-2998 colon; less than 0.01 µM in the experiment on HCT-116 colon; 0.0408 µM and < 0.01 µM in the experiment with HOP-62 NSCLC; 0.921 µM in the experiment with MALME-3M melanoma. The GI50 is > 23.1 µM and 6.99 µM with MDA-MB-231 breast; 0.0695 µM and 0.0295 µM in the experiment with OVCAR-3 ovarian; 0.0373 µM and 0.0307 µM in the experiment on OVCAR-5 ovarian; 0.0634 µM and 0.0656 µM in the experiment on SNB-19 CNS. Also, the TGI in the experiment on A498 renal, with CCRF-CEM leukemia, with HCC-2998 colon, with HCT-116 colon, in the experiment with HOP-62 NSCLC and with MALME-3M melanoma was more than 100 µM throughout. In addition, the TGI in the experiment on MDA-MB-231 breast, in the experiment on OVCAR-3 ovarian, in the experiment with OVCAR-5 ovarian and in the experiment on SNB-19 CNS was more than 100 µM each time.

Regarding `OC1(c2ccccc2)c2ccccc2N(c2ccccc2)c2ccc(Cl)cc21` (stereo not given), the GI50 in the experiment with A498 renal is 0.198 µM; with CCRF-CEM leukemia, 0.382 µM; in the experiment with HCC-2998 colon, 0.258 µM; in the experiment on HCT-116 colon, 0.234 µM; in the experiment with HOP-62 NSCLC, 0.328 µM; with MALME-3M melanoma it was 0.237 µM. The GI50 in the experiment with MDA-MB-231 breast was 0.231 µM; in the experiment with OVCAR-3 ovarian, 0.147 µM; in the experiment with OVCAR-5 ovarian, 0.457 µM; with SNB-19 CNS it was 0.378 µM. Further, the TGI with A498 renal worked out at 0.765 µM; with CCRF-CEM leukemia, 13.7 µM; in the experiment on HCC-2998 colon, 0.795 µM; in the experiment on HCT-116 colon it was 0.602 µM; with HOP-62 NSCLC, 1.23 µM; in the experiment with MALME-3M melanoma, 0.643 µM. Further, the TGI was determined as 0.626 µM with MDA-MB-231 breast, 0.304 µM in the experiment on OVCAR-3 ovarian, 1.28 µM with OVCAR-5 ovarian and 1.45 µM with SNB-19 CNS.

Take `Cc1ccc(CNc2ccc(Cl)cc2NCc2ccc(C)c(O)c2)cc1O`: the GI50 in the experiment on A498 renal is 8.55 µM; in the experiment with CCRF-CEM leukemia it was 5.02 µM; in the experiment on HCC-2998 colon it was 8.96 µM; in the experiment on HCT-116 colon it was 7.78 µM; in the experiment with HOP-62 NSCLC, 8.85 µM; in the experiment on MALME-3M melanoma, 6.2 µM. The GI50 in the experiment with MDA-MB-231 breast was 5.63 µM; in the experiment with OVCAR-3 ovarian it was 7.15 µM; with OVCAR-5 ovarian, 8.32 µM; with SNB-19 CNS, 7.69 µM. Moreover, the TGI turned out to be 16.1 µM in the experiment with A498 renal; 17.2 µM in the experiment with CCRF-CEM leukemia; 16.6 µM in the experiment on HCC-2998 colon; 14.6 µM with HCT-116 colon; 16.8 µM in the experiment with HOP-62 NSCLC; 14.7 µM in the experiment on MALME-3M melanoma. Also, the TGI stood at 12.9 µM with MDA-MB-231 breast, 13.9 µM in the experiment with OVCAR-3 ovarian, 16.2 µM with OVCAR-5 ovarian and 15.3 µM in the experiment on SNB-19 CNS.

In the case of `CC/C(=C\c1ccc(N(C)C)cc1)c1ccncc1`, the GI50 in the experiment with A498 renal is 4.35 µM; with CCRF-CEM leukemia it was 8.13 µM; in the experiment on HCC-2998 colon it was 6.58 µM; in the experiment on HCT-116 colon, 3.89 µM; with HOP-62 NSCLC it was 4.33 µM; with MALME-3M melanoma, 4.52 µM. The GI50 is 6.53 µM in the experiment on MDA-MB-231 breast, 4.13 µM with OVCAR-3 ovarian, 33 µM with OVCAR-5 ovarian and 9.09 µM in the experiment on SNB-19 CNS. Besides, the TGI is more than 100 µM in the experiment with A498 renal; more than 100 µM in the experiment on CCRF-CEM leukemia; more than 100 µM in the experiment on HCC-2998 colon; more than 100 µM in the experiment on HCT-116 colon; 33.7 µM with HOP-62 NSCLC; more than 100 µM in the experiment with MALME-3M melanoma. The TGI is 80.1 µM in the experiment on MDA-MB-231 breast, 29.7 µM in the experiment on OVCAR-3 ovarian, more than 100 µM in the experiment with OVCAR-5 ovarian and more than 100 µM with SNB-19 CNS.

As to `O=C(c1ccco1)c1c(C(F)(F)F)n([O-])c2cc(Cl)c(Cl)cc2[n+]1=O`, the GI50 in the experiment on A498 renal was 1.53 µM; in the experiment with CCRF-CEM leukemia, 0.384 µM; in the experiment with HCC-2998 colon, 0.606 µM; with HCT-116 colon, 0.269 µM; with HOP-62 NSCLC it was 0.316 µM; with MALME-3M melanoma it was 0.824 µM. Besides, the GI50 in the experiment with MDA-MB-231 breast was 0.843 µM; in the experiment with OVCAR-3 ovarian, 0.0798 µM; in the experiment with OVCAR-5 ovarian, 0.935 µM; in the experiment on SNB-19 CNS it was 6.41 µM. For the same compound, the TGI is 3.62 µM with A498 renal; 9.5 µM in the experiment on CCRF-CEM leukemia; 1.26 µM in the experiment on HCC-2998 colon; 0.921 µM with HCT-116 colon; 1 µM with HOP-62 NSCLC; 1.81 µM in the experiment on MALME-3M melanoma. Besides, the TGI in the experiment with MDA-MB-231 breast amounted to 1.77 µM; in the experiment on OVCAR-3 ovarian, 0.316 µM; with OVCAR-5 ovarian, 1.76 µM; with SNB-19 CNS it was 14.8 µM.

Consider `CC1SC(c2ccc(OCc3ccccc3)cc2)N(NC(=O)C(O)(c2ccccc2)c2ccccc2)C1=O` (stereo not given), for which the GI50 was 3.34 µM in the experiment on A498 renal; 2.1 µM in the experiment with CCRF-CEM leukemia; 1.92 µM in the experiment with HCC-2998 colon; 1.76 µM in the experiment on HCT-116 colon; 2.01 µM in the experiment on HOP-62 NSCLC; 2.15 µM with MALME-3M melanoma. Besides, the GI50 in the experiment on MDA-MB-231 breast is 4.31 µM; in the experiment with OVCAR-3 ovarian it was 2.36 µM; in the experiment with OVCAR-5 ovarian, 3.81 µM; in the experiment with SNB-19 CNS, 5 µM. The TGI with A498 renal stood at 13.7 µM; in the experiment on CCRF-CEM leukemia it was 5.69 µM; in the experiment on HCC-2998 colon it was 4.99 µM; in the experiment on HCT-116 colon, 4.71 µM; in the experiment with HOP-62 NSCLC, 8.1 µM; in the experiment on MALME-3M melanoma, 10.5 µM. Also, the TGI in the experiment on MDA-MB-231 breast came to 15.5 µM; in the experiment with OVCAR-3 ovarian, 6.1 µM; in the experiment on OVCAR-5 ovarian, 16.1 µM; in the experiment with SNB-19 CNS, 21.5 µM.
